Structures are written as SMILES.

The subject of this assay is culture from a ruminant animal foregut. As to the kind of experiment: administration of feed material and methanogenesis inhibitor to culturing device liquor, recording CH4 and dH2 (FIG. 11). The assay is classed as cell-based, sheep. Conditions: final CHBr3 concentration 6 μM in 1.5 L liquor. An excerpt:
FIG. 11 comprises a graph 1101 of the measured temperature on the upper y-axis 1102 shown in degrees Celsius (° C.), the measured CH4 on the middle y-axis 1103 in percentage (%), and the measured dH2 on the lower y-axis 1104 in milli Volts (mV) versus time on the x-axis 1105 measured in hours.
The plot 1106 of CH4 is the output of the SGX methane sensor as described in FIG. 8 800 and the accompanying text.
The plot 1006 of dH2 is the voltage generated by a hydrogen fuel cell as described in FIG. 7 700 and the accompanying text.
The culturing device vessel was inoculated with a culture sourced from a freshly slaughtered grass-fed ewe hogget sheep of mixed breed. After resection of the reticulorumen organ, 2.5 L the rumen content was determined to have a pH Of 6.0 and then transferred to a 5 L jug and mixed with 2.5 L of rainwater. A 0.7 L aliquot of this mixture was used to inoculate the vessel of a culturing device containing 0.8 L of rainwater pre-heated to the culturing device setpoint temperature of about 39° C.
After inoculation, the culturing device was prescribed the movement algorithm described in FIG. 10 1000 above.
As described herein, the vessel of the present examples has an internal volume of about 2.0 L and is typically operated with 1.5 L of liquor and 0.5 L of headspace. […]

`BrC(Br)Br` [CHBr3]: the “measured CH4 (plot 1106), effect of added CHBr3” value (given with daily feed on, 39° C.) is recorded as “decreasing CH4”. Moreover, where the note is “then ceased, dH2 anticipated to increase when methanogenesis is reduced”, the “measured dH2 (plot 1107, hydrogen fuel cell voltage)” value was “mirrored in the plot 1107 of the dH2”.

The values are drawn from patent US20260218109A1, “CULTURING DEVICE AND METHOD” (METHANE […] LIMITED, priority 2023, published 2026).
